Usually Ki stands for the equilibrium dissociation constant of an inhibitor or competing ligand from its target.

Results on 19 compounds are retold here after ChEMBL document CHEMBL4393696, “5-Arylisothiazol-3(2H)-one-1,(1)-(di)oxides: A new class of selective tumor-associated carbonic anhydrases (hCA IX and XII) inhibitors” (Eur J Med Chem, 2019).

Each structure is given as a SMILES string.

For one assay, the target named is Carbonic anhydrase 1 (Homo sapiens, UniProt P00915). Description: Inhibition of human carbonic anhydrase 1 assessed as inhibitory constant preincubated for 15 mins by stopped-flow CO2 hydration assay.
For the next assay, the target named is Carbonic anhydrase 2 (Homo sapiens, UniProt P00918). Description: Inhibition of human carbonic anhydrase 2 assessed as inhibitory constant preincubated for 15 mins by stopped-flow CO2 hydration assay.
The next assay addresses Carbonic anhydrase 9 (Homo sapiens, UniProt Q16790). The experiment in a line: Inhibition of human carbonic anhydrase 9 assessed as inhibitory constant preincubated for 15 mins by stopped-flow CO2 hydration assay.
The next assay deals with Carbonic anhydrase 12 (Homo sapiens, UniProt O43570). Description: Inhibition of human carbonic anhydrase 12 assessed as inhibitory constant preincubated for 15 mins by stopped-flow CO2 hydration assay.
Chain of Carbonic anhydrase 12 (O43570 whole entry): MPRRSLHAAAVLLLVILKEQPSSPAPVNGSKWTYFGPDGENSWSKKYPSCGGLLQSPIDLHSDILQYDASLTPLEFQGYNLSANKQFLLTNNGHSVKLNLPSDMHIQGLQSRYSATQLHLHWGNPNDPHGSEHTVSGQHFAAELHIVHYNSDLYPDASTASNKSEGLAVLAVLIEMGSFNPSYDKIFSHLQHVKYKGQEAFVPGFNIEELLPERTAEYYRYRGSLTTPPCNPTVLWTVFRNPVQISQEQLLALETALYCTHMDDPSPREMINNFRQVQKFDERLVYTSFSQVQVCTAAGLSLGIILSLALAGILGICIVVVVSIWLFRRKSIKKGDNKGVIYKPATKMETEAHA

Chain of Carbonic anhydrase 1 (P00915 whole entry): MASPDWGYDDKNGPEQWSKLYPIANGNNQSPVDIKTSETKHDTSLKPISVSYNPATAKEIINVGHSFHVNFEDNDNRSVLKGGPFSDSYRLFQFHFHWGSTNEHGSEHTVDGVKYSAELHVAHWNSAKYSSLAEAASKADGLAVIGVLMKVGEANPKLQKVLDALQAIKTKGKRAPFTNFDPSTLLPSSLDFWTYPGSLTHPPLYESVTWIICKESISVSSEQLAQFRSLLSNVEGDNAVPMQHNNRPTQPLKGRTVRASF

Consider `CC(C)(C)N1C(=O)C=C(c2cn(S(=O)(=O)c3ccccc3)c3ccccc23)S1(=O)=O`, for which the values for the inhibition constant Ki at Carbonic anhydrase 1, on Carbonic anhydrase 2 and at Carbonic anhydrase 9 were over 10000 nM, 81.8 nM and 4.3 nM, respectively.
On the same counts, the results for `O=c1cc(-c2cn(S(=O)(=O)c3ccccc3)c3ccccc23)[s+]([O-])[nH]1` (stereo not drawn) are over 10000 nM, over 10000 nM and 101 nM.
On the same counts, the results for `CC(C)(C)n1c(=O)cc(-c2ccccc2)[s+]1[O-]` (stereo not drawn) are over 10000 nM, over 10000 nM and 4.5 nM.
On the same counts, the results for `CC(C)(C)N1C(=O)C=C(c2cc3ccccc3n2S(=O)(=O)c2ccccc2)S1(=O)=O` are over 10000 nM, over 10000 nM and 347 nM.
For the compound `CC(C)(C)OC(=O)n1c(-c2cc(=O)n(C(C)(C)C)[s+]2[O-])cc2ccccc21` (stereo not drawn), the Ki at Carbonic anhydrase 1 was over 10000 nM; at Carbonic anhydrase 2 it was over 10000 nM; on Carbonic anhydrase 9 it was 47.7 nM.
Turning to `CC(C)(C)N1C(=O)C=C(c2cccs2)S1(=O)=O`, the Ki was over 10000 nM on Carbonic anhydrase 1, over 10000 nM at Carbonic anhydrase 2 and 221 nM at Carbonic anhydrase 9.
As to `CC(C)(C)n1c(=O)cc(-c2cn(S(=O)(=O)c3ccccc3)c3ccccc23)[s+]1[O-]` (stereo not drawn), the Ki is over 10000 nM at Carbonic anhydrase 1, 2110 nM at Carbonic anhydrase 2 and 8.8 nM on Carbonic anhydrase 9.
Turning to `CC(C)(C)n1c(=O)cc(Cl)[s+]1[O-]` (stereo not drawn), the Ki was 454 nM at Carbonic anhydrase 1, over 10000 nM on Carbonic anhydrase 2, 171 nM at Carbonic anhydrase 9 and 53.6 nM at Carbonic anhydrase 12.
Take `CC(C)(C)N1C(=O)C=C(c2ccccc2)S1(=O)=O`: the figures for the Ki on Carbonic anhydrase 1, on Carbonic anhydrase 2 and on Carbonic anhydrase 9 were over 10000 nM, 1570 nM and 28.4 nM, respectively.
Turning to `CC(C)(C)n1c(=O)cc(-c2cccs2)[s+]1[O-]` (stereo not drawn), the Ki is over 10000 nM at Carbonic anhydrase 1, over 10000 nM on Carbonic anhydrase 2 and 48.6 nM at Carbonic anhydrase 9.
Turning to `O=c1cc(-c2ccccc2)[s+]([O-])[nH]1` (stereo not drawn), the Ki on Carbonic anhydrase 1 is over 10000 nM; at Carbonic anhydrase 2, over 10000 nM; at Carbonic anhydrase 9, 45.5 nM.
On to `CC(C)(C)n1c(=O)cc(-c2cc3ccccc3o2)[s+]1[O-]` (stereo not drawn), for which the Ki is over 10000 nM on Carbonic anhydrase 2 and 251 nM at Carbonic anhydrase 9.
For the compound `COc1cc(-c2cc(=O)n(C(C)(C)C)[s+]2[O-])cc(OC)c1OC` (stereo not drawn), the Ki is over 10000 nM on Carbonic anhydrase 1, over 10000 nM on Carbonic anhydrase 2 and 237 nM on Carbonic anhydrase 9.
With `CC(C)(C)n1c(=O)cc(-c2ccc3ccccc3c2)[s+]1[O-]` (stereo not drawn), the Ki is over 10000 nM on Carbonic anhydrase 2 and 16 nM at Carbonic anhydrase 9.
As to `CC(C)(C)n1c(=O)cc(-c2cc3ccccc3n2S(=O)(=O)c2ccccc2)[s+]1[O-]` (stereo not drawn), the Ki was over 10000 nM at Carbonic anhydrase 1, over 10000 nM on Carbonic anhydrase 2 and 40.3 nM at Carbonic anhydrase 9.
Regarding `O=C1C=C(c2ccccc2)S(=O)(=O)N1`, the inhibitory constant (Ki) on Carbonic anhydrase 1 is over 10000 nM; at Carbonic anhydrase 2 it was over 10000 nM; on Carbonic anhydrase 9, 40.3 nM.
`CC(C)(C)N1C(=O)C=C(Cl)S1(=O)=O`: the results for the inhibition constant Ki on Carbonic anhydrase 2 and at Carbonic anhydrase 9 were over 10000 nM and 227 nM, respectively.
For `CC(C)(C)n1sc(Cl)cc1=O` the same measures were over 10000 nM and 98.5 nM.
As to `CC(C)(C)n1c(=O)cc(-c2cc3ccccc3s2)[s+]1[O-]` (stereo not drawn), the Ki is over 10000 nM on Carbonic anhydrase 2 and 133 nM at Carbonic anhydrase 9.
